Experimental data published in patent publication US20230027929A1, “MrgprX2 Antagonists and Uses Thereof” (Dermira, Inc., priority 2019, published 2023).

Target: T1, hMrgpMRGPRX2 (Homo sapiens, UniProt Q96LB1)
T1 construct: expressed in transfected cells
T1 sequence (Q96LB1 1-330): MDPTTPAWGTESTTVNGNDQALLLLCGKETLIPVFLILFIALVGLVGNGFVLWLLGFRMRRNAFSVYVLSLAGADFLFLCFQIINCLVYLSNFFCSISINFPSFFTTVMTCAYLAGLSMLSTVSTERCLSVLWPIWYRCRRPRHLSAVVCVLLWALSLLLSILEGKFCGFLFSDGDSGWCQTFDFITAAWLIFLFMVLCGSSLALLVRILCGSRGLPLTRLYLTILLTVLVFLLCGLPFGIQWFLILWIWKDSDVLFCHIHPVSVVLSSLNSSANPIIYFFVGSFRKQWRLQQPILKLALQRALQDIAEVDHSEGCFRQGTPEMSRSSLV
Assay: FLIPR intracellular calcium mobilization, antagonist activity in recombinant hMrgpMRGPRX2 expressing cells
Format: cell-based
Conditions: read-out: Human MrgprX2 Antagonist pIC50 (converted)
How it was run: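 Antagonist activity was read as inhibition of intracellular calcium mobilization (FLIPR) in recombinant cells expressing human MrgprX2. Potency was also checked in LAD-2 human mast cells with endogenous receptor, and orthologue activity in cells expressing mouse MrgprB2, mouse MrgprA1, and gerbil, Chinese hamster and cynomolgus orthologues.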

For `C[C@]1(C(=O)Nc2ccc(Oc3cc(F)cc(F)c3)cn2)CCCN1S(N)(=O)=O` [Compound E282], which IC50 is on record?
The IC50 was 27.5 nM.

With `NS(=O)(=O)N1CCC[C@H]1C(=O)Nc1ccc(Oc2cc(F)cc(F)c2)cn1` [Compound E283] as the compound, how does the IC50 read?
The IC50 was 562 nM.

How did the IC50 turn out when `CC1(C)CC(=O)N(c2ccc(Oc3ccc(F)c(F)c3)cn2)C1` [Compound E284, 1-[5-(3,4-difluorophenoxy)-2-pyridyl]-4,4-dimethyl-pyrrolidin-2-one] was run?
Its IC50 is 1780 nM.

`CC1(C)CCN(c2ccc(Oc3ccc(F)c(F)c3)cn2)C1=O` [Compound E285, 1-[5-(3,4-difluorophenoxy)-2-pyridyl]-3,3-dimethyl-pyrrolidin-2-one] was tested. Which IC50 did it give?
Its IC50 is 257 nM.

For `CCN(C[C@@H](O)C(F)(F)F)S(=O)(=O)Nc1ccc(Oc2ccc(F)c(F)c2)cn1` [Compound E286, 5-(3,4-difluorophenoxy)-2-[[ethyl-[(2R)-3,3,3-trifluoro-2-hydroxy-propyl]sulfamoyl]amino]pyridine], which IC50 is on record?
The IC50 was 2290 nM.

For `CC(C)C(=O)Nc1ncc(Oc2cccc(F)c2)cc1O` [Compound E287, N-[5-(3-fluorophenoxy)-3-hydroxy-2-pyridyl]-2-methyl-propanamide], which IC50 is on record?
The IC50 was 794 nM.

`CC1(C)C(C(=O)Nc2ccc(Oc3cncc(F)c3)nn2)C1(C)C` [Compound E288, N-[6-[(5-fluoro-3-pyridyl)oxy]pyridazin-3-yl]-2,2,3,3-tetramethyl-cyclopropanecarboxamide] was tested. Which IC50 did it give?
The IC50 was 9120 nM.

How did the IC50 turn out when `CCN(C[C@@H](O)C(F)(F)F)C(=O)Nc1cc(Oc2ccc(F)c(F)c2)ncn1` [Compound E289, 3-[6-(3,4-difluorophenoxy)pyrimidin-4-yl]-1-ethyl-1-[(2R)-3,3,3-trifluoro-2-hydroxy-propyl]urea] was run?
Its IC50 is 724 nM.

With `CCN(C[C@@H](O)C(F)(F)F)C(=O)Nc1cc(Oc2ccccc2F)ncn1` [Compound E290, 1-ethyl-3-[6-(2-fluorophenoxy)pyrimidin-4-yl]-1-[(2R)-3,3,3-trifluoro-2-hydroxy-propyl]urea] as the compound, how does the IC50 read?
Its IC50 is 692 nM.

With `CCN(C[C@@H](O)C(F)(F)F)C(=O)Nc1cc(Oc2cccc(F)c2)ncn1` [Compound E291, 1-ethyl-3-[6-(3-fluorophenoxy)pyrimidin-4-yl]-1-[(2R)-3,3,3-trifluoro-2-hydroxy-propyl]urea] as the compound, how does the IC50 read?
Its IC50 is 891 nM.

Which IC50 does the source give for `CC1(C)C(C(=O)Nc2ccc(Oc3cncc(F)c3)cn2)C1(C)C` [Compound E0530] here?
Its IC50 is 2 nM.
